Test results published in patent publication US20090202565A1, “TORC POLYNUCLEOTIDES AND POLYPEPTIDES AND METHOD OF USE” (priority 2004, published 2009).
Where no end group is shown, it is not given here.

What was measured:
TORC2-eGFP = TORC2-eGFP nuclear translocation in HEK293 cells, fluorescence microscopy; type: cell-based, human; settings: for translocation of TORC2-eGFP to the nucleus: 45 min, 10 nM LMB, 10 uM ionomycin, or both
Description: (§1) HEK293 cells are transfected with either pCMV-TORC1-eGFP, pCMV-TORC2-eGFP or pCMV-TORC3-eGFP linearized with AseT restriction endonuclease and stable integrants are selected with 700 ug/ml geneticin generating a population of cells that express TORC-eGFP. These are referred to as 293hTORC1, 293hTORC2 or 293hTORC3 cells, respectively. All of the stable TORC-eGFP cell-lines are subjected to fluorescence activated cell sorting to remove non-fluorescing cells.
(§2) The localization of human TORC2 and TORC3 is also examined. Both HeLa cells and HEK293 cells are transfected with either pCMV-TORC2-eGFP or pCMV-TORC3-eGFP.
(§3) In order to assess this possibility, HeLa cells stably expressing TORC1-eGFP are exposed to either no treatment (FIG. 5, panel A), 50 uM forskolin and 100 uM IBMX (panel B), or 1 mM db-cAMP (panel C) for 2 hours. […] Similarly, HEK293 cells stably expressing TORC2-eGFP (FIG. 5, panels D and E) or TORC3-eGFP (panels F and G) are either untreated (panels D and F) or treated with 25 uM forskolin for 1 hour (panels E and G).

TORC1-eGFP [1] = test: TORC1-eGFP nuclear translocation in stably expressing HEK293 cells; type: cell-based, human; settings: stable HEK293; for translocation of TORC1-eGFP to the nucleus: 45 min, 10 nM LMB, 10 uM ionomycin, or both; for TORC1-eGFP fluorescence localization: 1 hr, 10 nM LMB alone, 160 nM isoproterenol alone, or isoproterenol plus LMB
Description: as §1
To assess whether TORC translocation is induced by stimulation of endogenous G-protein coupled receptors (GPCRs), HEK293 cells stably expressing various TORC-eGFP fusions are treated with isoproterenol, a β2-adrenergic receptor agonist, for 1 hr.

CRE-driven luciferase = test: CRE-dependent luciferase reporter in HeLa and HeLa::TORC1-eGFP cells; type: cell-based; settings: 18 hours; for activation of CRE-driven luciferase in naïve HeLa cells: 5 uM ionomycin, 10 uM PMA
From the text: To determine the effect of TORC1 over-expression and localization on gene expression, CRE-dependent transcription is compared in untransfected HeLa cells and HeLa cells stably expressing TORC1-eGFP using a luciferase reporter containing a CRE-dependent promoter.

TORC1-eGFP [2] = test: TORC1 (FLAG-TORC1 / TORC1-eGFP) nuclear translocation in HeLa cells, fluorescence microscopy; type: cell-based, human
Description: Generation of stable TORC-eGFP cell lines. HeLa cells are transfected with pCMV-TORC1-eGFP and stable integrants are selected with 700 ug/ml geneticin. A single colony that expressed TORC1-eGFP is isolated and expanded (HhTORC1eGFP cells). […]
HeLa cells are transfected with FLAG-TORC1 (FIG. 1, panels A and B) or TORC1-eGFP (panels C and D). Cells are either untreated (panels A and C) or treated with 10 nM leptomycin-B (LMB), a fungal inhibitor of CRM1 mediated nuclear export of proteins, for 90 min (panels B and D). FLAG-tagged protein is visualized by immunofluorescence while eGFP-tagged proteins are directly visualized by fluorescence. […] Since a variety of signal transduction proteins are regulated by either nuclear export or stimulus induced import, the localization of TORC1 is examined after treatment with LMB. […]

TORC3-eGFP = TORC3-eGFP nuclear translocation in HEK293 cells, fluorescence microscopy; type: cell-based, human; settings: for translocation of TORC3-eGFP to the nucleus: 45 min, 10 nM LMB, 10 uM ionomycin, or both
Description: as §1, §2, §3

dTORC-eGFP = dTORC-eGFP translocation in Drosophila larval salivary glands; type: cell-based; settings: 5 uM ionomycin 1 hour; 100 uM db-cAMP 4 hours
Description: Drosophila Methods. The Gal4 responder construct, UAS-GFP-TORC, is created by PCR cloning the eGFP gene from the pEGFP—N1 vector (Clontech # 6085-1) and the dTORC gene from Drosophila genomic DNA into the pUAST vector (Brand and Perrimon, 1993). This construct is injected into Drosophila embryos by P-element germline transformation to create transgenic lines (Rubin and Spradling, 1982). To induce expression of the fusion protein, flies containing UAS-GFP-TORC are crossed to flies containing the HS-Gal4 construct obtained from the Bloomington Stock Center, University of Indiana, Bloomington, Ind. The larvae are heat-shocked at […] and salivary glands from late third instar larvae were dissected in PBS, placed in Sang M3 media (Sigma #S3652) containing various chemical treatments in a 96-well plate. The glands are visualized using the Nikon Eclipse TE2000-E fluorescent microscope. Images are taken at a 100× magnification.
A fusion of eGFP and the Drosophila TORC (dTORC) protein is generated. […] Salivary glands dissected from transgenic larvae expressing the dTORC fusion protein are examined by microscopy. dTORC-eGFP is localized in the cytoplasm in all of the cells in the gland (FIG. 17, panels A and D). […] Thus, the localization of TORC in Drosophila is regulated by cAMP and calcium, just as in human cells. […]

CRE-luciferase [3] = test: CRE-luciferase with β2-adrenergic receptor and isoproterenol in HEK293 cells; type: cell-based; settings: HEK293 transiently transfected; isoproterenol 18 hours
From the text: (§4) The siRNA results (Example 12) are complicated by the need to use multiple siRNAs and to block multiple TORCs. In order to efficiently block activity of all TORC proteins more readily, a dominant interfering TORC protein is designed which fuses the highly conserved 44 amino-acid CREB-binding domain of TORC1 to eGFP (T1-44eGFP). To block activity of all TORC proteins efficiently, a dominant interfering protein that should specifically block the ability of all TORC's to interact with CREB1 is designed. The CREB1 interaction domain of TORC proteins is present in the first 44 amino acids of TORC1. The N-terminal 44 amino acids, representing the first exon of the TORC1 gene, is nearly 100% conserved in virtually all mammalian, C. elegans and Drosophila TORC proteins, yet has virtually no homology or similarity to any other proteins (Tourgenko et al., 2003). […] HeLa cells are transfected with either the eGFP control or TORC1(1-44)-eGFP with either CRE-luciferase (FIG. 16, panel A) or NFKB-luciferase (panel B) prior to stimulation with 50 uM forskolin/100 uM IBMX or 5 uM ionomycin. In panel C, HEK293 cells are transiently transfected with CRE-luciferase and the β2-adrenergic receptor (β2AR) in combination with either the empty CMV vector, eGFP, or TORC1(1-44)-eGFP fusion and exposed to isoproterenol for 18 hours. […]

CRE-luciferase [4] = test: CRE-luciferase reporter with dominant negative TORC1(1-44)-eGFP in HeLa cells; type: cell-based
From the text: The siRNA results (Example 12) are complicated by the need to use multiple siRNAs and to block multiple TORCs. In order to efficiently block activity of all TORC proteins more readily, a dominant interfering TORC protein is designed which fuses the highly conserved 44 amino-acid CREB-binding domain of TORC1 to eGFP (T1-44eGFP). To block activity of all TORC proteins efficiently, a dominant interfering protein that should specifically block the ability of all TORC's to interact with CREB1 is designed. The CREB1 interaction domain of TORC proteins is present in the first 44 amino acids of TORC1. The N-terminal 44 amino acids, representing the first exon of the TORC1 gene, is nearly 100% conserved in virtually all mammalian, C. elegans and Drosophila TORC proteins, yet has virtually no homology or similarity to any other proteins (Tourgenko et al., 2003). […] HeLa cells are transfected with either the eGFP control or TORC1(1-44)-eGFP with either CRE-luciferase (FIG. 16, panel A) or NFKB-luciferase (panel B) prior to stimulation with 50 uM forskolin/100 uM IBMX or 5 uM ionomycin. In panel C, HEK293 cells are transiently transfected with CRE-luciferase and the β2-adrenergic receptor (β2AR) in combination with either the empty CMV vector, eGFP, or TORC1(1-44)-eGFP fusion and exposed to isoproterenol for 18 hours. […] Thus blockade of TORC function also prevents CRE-activation through a Gs-linked GPCR using isoproterenol.

NF-kappaB reporter = test: NFKB-luciferase reporter with dominant negative TORC1(1-44)-eGFP in HeLa cells; type: cell-based
From the text: as §4

[5] = transfected HEK293, LMB treatment
[6] = stable HEK293, 160 nM isoproterenol alone, 1 hr

CCC(=C/[C@H](C)C/C=C/C(C)=C/[C@@H](C)C(=O)[C@@H](C)[C@H](O)[C@@H](C)C/C(C)=C/C(=O)O)/C=C/[C@@H]1OC(=O)C=C[C@@H]1C [LMB, Leptomycin B] was tested, and the “time until TORC2-eGFP becomes predominantly nuclear following LMB exposure” value (TORC2-eGFP; stable HEK293) was at most 120 min, the “translocation of TORC2-eGFP to the nucleus” value (TORC2-eGFP; stable HEK293) was “weak or no translocation to the nucleus” and the “nuclear accumulation of TORC2-eGFP” value (TORC2-eGFP; [5]) was “induces accumulation of both proteins in the nuclei”. For the same compound, the “translocation of TORC1-eGFP to the nucleus” value (TORC1-eGFP [1]) was “weak or no translocation to the nucleus”, the TORC1-eGFP fluorescence localization (TORC1-eGFP [1]) was “eGFP fluorescence originating from the cytoplasm” and the “induction of CRE-driven luciferase” value (CRE-driven luciferase; 10 nM LMB, naïve HeLa vs HeLa::TORC1-eGFP) was “significant induction only in the HeLa::TORC1-eGFP cells”. For the same compound, the “time to near complete TORC1 translocation following LMB exposure” value (TORC1-eGFP [2]; HeLa cells, data not shown) was “less than 30 minutes”, the “subcellular localization of TORC1 fusion proteins” value (TORC1-eGFP [2]; HeLa transfected with FLAG-TORC1 or TORC1-eGFP, 10 nM LMB, 90 min) was “present predominantly in the nucleus” and the “TORC1-eGFP translocation (nuclear-cytoplasmic fluorescence difference), positive control of cDNA screen” value (TORC1-eGFP [2]; HeLa, 384-well plates, Cellomics ArrayScan II) was “detected in virtually all control wells”. The “time until TORC3-eGFP becomes predominantly nuclear following LMB exposure” value (TORC3-eGFP; stable HEK293) was “approximately 90 min”, the “translocation of TORC3-eGFP to the nucleus” value (TORC3-eGFP; stable HEK293) was “weak or no translocation to the nucleus” and the “nuclear accumulation of TORC3-eGFP” value (TORC3-eGFP; [5]) was “induces accumulation of both proteins in the nuclei”.

With CCCCCCCCCCCCCC(=O)O[C@@H]1[C@@H](C)[C@@]2(O)[C@@H](C=C(CO)C[C@]3(O)C(=O)C(C)=C[C@@H]23)[C@@H]2C(C)(C)[C@]12OC(C)=O [PMA, Phorbol 12-myristate 13-acetate] the “activation of CRE-driven luciferase in naïve HeLa cells” value (CRE-driven luciferase) was “modest level of activation” and the “accumulation of TORC1-eGFP in the nucleus in response to PMA” value (TORC1-eGFP [2]; HeLa stable TORC1-eGFP, 10 uM PMA, 1 hour) was “induced TORC1-eGFP to accumulate in the nucleus”.

With CCCC(=O)Nc1ncnc2c1ncn2[C@@H]1O[C@@H]2COP(=O)(O)O[C@H]2[C@H]1OC(=O)CCC [db-cAMP, dibutyryl cyclic-AMP] the “translocation of dTORC-eGFP into the nucleus” value (dTORC-eGFP) was “induced translocation of dTORC-eGFP into the nucleus” and the “translocation of TORC1-eGFP on raising intracellular cAMP” value (TORC1-eGFP [2]; HeLa stable TORC1-eGFP, 50 uM forskolin and 100 uM IBMX, or 1 mM db-cAMP, 2 hours) was “partial translocation of TORC1-eGFP”.

In the case of C[C@H](CCC(=O)O)C[C@H](C)C[C@H](C)C(=O)/C=C(\O)[C@H](C)C[C@H](C)C/C=C/[C@@H](C)[C@@H](O)[C@@H](C)[C@@H](O)C[C@@H]1CC[C@@](C)([C@H]2CC[C@@](C)([C@@H](C)O)O2)O1 [ionomycin], the “translocation of TORC2-eGFP to the nucleus” value (TORC2-eGFP; stable HEK293) is reported as “weak or no translocation to the nucleus”, the “translocation of dTORC-eGFP into the nucleus” value (dTORC-eGFP) is reported as “induced translocation of dTORC-eGFP into the nucleus” and the “translocation of TORC1-eGFP to the nucleus” value (TORC1-eGFP [1]) is reported as “weak or no translocation to the nucleus”. The “activation of CRE-driven luciferase in naïve HeLa cells” value (CRE-driven luciferase) was “modest level of activation”, the “accumulation of TORC1-eGFP in the nucleus in response to calcium” value (TORC1-eGFP [2]; HeLa stable TORC1-eGFP, 1 uM ionomycin or 10 uM CPA, 1 hour) was “potently induce accumulation of the TORC1-eGFP in the nucleus” and the “translocation of TORC3-eGFP to the nucleus” value (TORC3-eGFP; stable HEK293) was “weak or no translocation to the nucleus”.

In the case of CC(C)NCC(O)c1ccc(O)c(O)c1 (stereo not drawn) [isoproterenol, Isoproterenol], the TORC2-eGFP fluorescence localization (TORC2-eGFP; [6]) is reported as “fluorescence from the nucleus occurs”, the TORC1-eGFP fluorescence localization (TORC1-eGFP [1]) is reported as “eGFP fluorescence originating from the cytoplasm” and the TORC3-eGFP fluorescence localization (TORC3-eGFP; [6]) is reported as “fluorescence from the nucleus occurs”.

With “T1(1-44)eGFP: dominant interfering protein fusing the 44 amino-acid CREB-binding domain of TORC1 to eGFP (MATSNNPRKFSEKIALHNQKQAEETAAFEEVMKDLSLTRAARLQ; also: fused to eGFP)” the “effect on CRE-luciferase induction by β2AR and isoproterenol” value (CRE-luciferase [3]) was “strongly inhibits CRE-luciferase induction”, the “effect on CRE activation through forskolin/IBMX or ionomycin and PMA” value (CRE-luciferase [4]; HeLa, 50 uM forskolin/100 uM IBMX or 5 uM ionomycin) was “potently blocks CRE activation” and the “effect on activity of all three TORCs on CRE-activation” value (CRE-luciferase [4]; data not shown) was “inhibited”. For the same compound, the “effect on enhanced CRE-response in HhTORC1 cells” value (CRE-luciferase [4]; data not shown) was “effectively blocked” and the “effect on activation of NF-kappaB reporter by ionomycin and PMA” value (NF-kappaB reporter) was “no effect on activation of an NF-kappaB reporter”.
